Experimental data as given in patent US20100003217A1, “Compounds and Pharmaceutical Compositions for the Treatment of Viral Infections” (priority 2008, published 2010).

Assays:
[1] = system: S282T HCV replicon (184R-D2 cells); assay: microbe, parasite or virus in culture
Procedure: (§1) 1. […] Huh-7 cells were seeded into column 1 of each plate at a similar density.
(§2) 2. […] Eight additional 3-fold serial dilutions of each compound were prepared from the 2× stock in assay medium. Final drug concentrations ranged from 100 to 0.015 μM.
(§3) 3. […] This setup was run in duplicate in each 96-well plate.
(§4) 4. Cells were incubated with inhibitors for three days at 37° C./5% CO2.
(§5) 1. After three days of drug treatment, media was removed from the plates via gentle tapping and the cells were fixed to the plates with 100 μL/well of 1:1 acetone:methanol.
(§6) 2. After one minute of incubation at room temperature, plates were washed three times with 100 μL/well of ELISA wash solution and then blocked with 150 μL/well of 10% FBS-TNE.
(§7) 3. After a one hour incubation at room temperature, plates were washed three times with 100 μL/well of ELISA wash solution, and then 100 μL/well of mouse anti-hepatitis C […] mAb (1 mg/mL stock diluted 1:1,500 in 10% FBS-TNE) was added.
(§8) 4. Following 2 hours of incubation at 37° C., plates were washed three times with 100 μL/well of ELISA wash solution, and then 100 μL/well of HRP-goat anti-mouse antibody (diluted 1:4,000 in 10% FBS-TNE) was added.
(§9) 4. After a one hour incubation period at 37° C., each plate was washed three times with 100 μL/well of ELISA wash solution. Color development was then initiated with 100 μL/well of OPD solution.
(§10) 5. After a 30 minute incubation period in the dark at room temperature, reactions were stopped by adding 100 μL of 2NH2SO4 to each well.
(§11) 6. The absorbance was measured at 490 nm on a Victor^3 V 1420 multilabel counter (Perkin Elmer). The percent inhibition of HCV replicon replication was calculated for each drug using an average of the duplicate wells.

[2] = system: wild-type HCV replicon (GS4.1 cells); assay: microbe, parasite or virus in culture
Procedure: as §1, §2, §3, §4, §5, §6, §7, §8, §9, §10, §11

CYP1A2 = CYP1A2 (Homo sapiens, UniProt P05177); assay: Incubation with human recombinant CYP450 supersomes, 1A2; format: in vitro ADME; settings: CYP450 1A2 supersomes, 60 min, 10 μM, average of two experiments
Sequence of CYP1A2 (P05177 whole entry): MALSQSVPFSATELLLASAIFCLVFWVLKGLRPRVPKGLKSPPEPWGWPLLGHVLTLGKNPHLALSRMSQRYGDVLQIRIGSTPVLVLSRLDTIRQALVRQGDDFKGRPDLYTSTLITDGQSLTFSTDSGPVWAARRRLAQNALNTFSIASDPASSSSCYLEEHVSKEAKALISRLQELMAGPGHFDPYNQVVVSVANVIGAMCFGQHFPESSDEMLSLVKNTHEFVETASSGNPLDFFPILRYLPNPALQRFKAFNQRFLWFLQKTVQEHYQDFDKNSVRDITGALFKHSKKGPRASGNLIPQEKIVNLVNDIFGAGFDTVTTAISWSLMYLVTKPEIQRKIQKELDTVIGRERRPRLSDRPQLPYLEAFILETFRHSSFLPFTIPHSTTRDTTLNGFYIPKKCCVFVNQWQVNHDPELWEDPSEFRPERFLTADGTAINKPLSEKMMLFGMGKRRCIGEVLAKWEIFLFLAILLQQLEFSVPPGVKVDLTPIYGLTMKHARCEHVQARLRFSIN
Procedure: (§12) Supersomes—Incubations were conducted in a final volume of 0.1 mL reaction buffer (50-100 mM potassium phosphate, pH 7.4 or 100 mM Tris-HCL, pH 7.4) according to protocol provided with each CYP450 supersome. Each reaction contained […] of CYP450 supersome, 1.3 mM NADP^+, 3.3 mM glucose-6-phosphate, 0.4 U/mL glucose-6-phosphate dehydrogenase, 3.3 mM MgCl2 and 10 μM Compound 1. Following incubation for 60 min at 37° C., 100 μL of stop solution (acetonitrile:methanol; 1:1) was added and samples centrifuged for 10 min at 10,000×g. The supernatant was then dried and reconstituted in 10 mM potassium phosphate, pH 5, further transferred to an HPLC glass vial and analyzed by HPLC-UV (described above).

CYP3A4 = CYP3A4 (Homo sapiens, UniProt P08684); assay: Effect of CYP3A4 inhibitors (ketoconazole, ritonavir) on metabolic stability in human liver microsomes; format: in vitro ADME; settings: human microsomes 1 mg/mL, 60 min, 10 μM, NADPH
Sequence of CYP3A4 (P08684 whole entry): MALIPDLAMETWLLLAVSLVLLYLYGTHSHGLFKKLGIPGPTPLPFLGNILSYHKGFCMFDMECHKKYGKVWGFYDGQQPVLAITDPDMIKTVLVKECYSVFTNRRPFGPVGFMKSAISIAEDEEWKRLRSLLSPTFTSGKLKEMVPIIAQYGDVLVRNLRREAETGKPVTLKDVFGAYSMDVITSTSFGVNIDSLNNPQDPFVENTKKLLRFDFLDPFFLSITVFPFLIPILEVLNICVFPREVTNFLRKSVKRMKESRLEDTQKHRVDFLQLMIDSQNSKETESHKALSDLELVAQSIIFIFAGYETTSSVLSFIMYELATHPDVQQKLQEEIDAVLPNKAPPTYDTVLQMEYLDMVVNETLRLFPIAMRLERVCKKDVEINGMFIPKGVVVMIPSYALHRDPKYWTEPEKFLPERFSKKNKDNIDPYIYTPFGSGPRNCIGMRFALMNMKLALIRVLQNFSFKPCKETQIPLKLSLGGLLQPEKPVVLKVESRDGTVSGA
Procedure: Incubations were conducted in a final volume of 0.1 mL per incubation time point. […] Final solvent (DMSO or methanol) concentration was maintained at 0.2%. Reactions were initiated by the addition of an NADPH regenerating system (1.3 mM NADP^+, 3.3 mM glucose-6-phosphate, 0.4 U/ml glucose-6-phosphate dehydrogenase, and 3.3 mM MgCl2, final concentrations). Incubations with no inhibitor served as control. Reactions were terminated at 30 min (monkey) or 60 min (rat and human) by the addition of 0.2 mL of stop solution (acetonitrile). The samples were vortex-mixed for 30 sec and then centrifuged at 10,000×g for 10 min. The supernatant was dried using a Labconco CentriVap concentrator and the dry residue reconstituted in water, transferred to an HPLC glass vial and analyzed by HPLC-UV method 1 (described above).
Because Compound 1 is rapidly metabolized in monkey liver microsomes, incubation conditions were adjusted by reducing protein content to 0.5 mg/mL and incubation time to 30 min. Incubation conditions for rat and human were unchanged; protein was 1 mg/mL and incubation time was 60 min.

CYP2C19 = CYP2C19 (Homo sapiens, UniProt P33261); assay: Incubation with human recombinant CYP450 supersomes, 2C19; format: in vitro ADME; settings: CYP450 2C19 supersomes, 60 min, 10 μM, average of two experiments
Sequence of CYP2C19 (P33261 whole entry): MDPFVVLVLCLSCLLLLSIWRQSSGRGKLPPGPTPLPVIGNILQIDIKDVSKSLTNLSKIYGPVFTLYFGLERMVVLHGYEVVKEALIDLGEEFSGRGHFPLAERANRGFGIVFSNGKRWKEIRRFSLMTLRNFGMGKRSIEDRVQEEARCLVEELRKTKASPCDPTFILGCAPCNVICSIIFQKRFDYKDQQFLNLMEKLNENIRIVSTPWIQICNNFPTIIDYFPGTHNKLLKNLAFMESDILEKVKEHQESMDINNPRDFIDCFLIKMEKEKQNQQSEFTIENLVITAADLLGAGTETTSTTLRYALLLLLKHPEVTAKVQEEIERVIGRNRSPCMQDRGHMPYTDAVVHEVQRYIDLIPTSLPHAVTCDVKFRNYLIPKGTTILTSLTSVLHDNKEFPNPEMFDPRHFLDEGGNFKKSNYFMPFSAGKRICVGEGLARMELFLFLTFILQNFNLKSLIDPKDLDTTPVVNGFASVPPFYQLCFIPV
Procedure: as §12

CYP2B6 = CYP2B6 (Homo sapiens, UniProt P20813); assay: Incubation with human recombinant CYP450 supersomes, 2B6; format: in vitro ADME; settings: CYP450 2B6 supersomes, 60 min, 10 μM, average of two experiments
Sequence of CYP2B6 (P20813 whole entry): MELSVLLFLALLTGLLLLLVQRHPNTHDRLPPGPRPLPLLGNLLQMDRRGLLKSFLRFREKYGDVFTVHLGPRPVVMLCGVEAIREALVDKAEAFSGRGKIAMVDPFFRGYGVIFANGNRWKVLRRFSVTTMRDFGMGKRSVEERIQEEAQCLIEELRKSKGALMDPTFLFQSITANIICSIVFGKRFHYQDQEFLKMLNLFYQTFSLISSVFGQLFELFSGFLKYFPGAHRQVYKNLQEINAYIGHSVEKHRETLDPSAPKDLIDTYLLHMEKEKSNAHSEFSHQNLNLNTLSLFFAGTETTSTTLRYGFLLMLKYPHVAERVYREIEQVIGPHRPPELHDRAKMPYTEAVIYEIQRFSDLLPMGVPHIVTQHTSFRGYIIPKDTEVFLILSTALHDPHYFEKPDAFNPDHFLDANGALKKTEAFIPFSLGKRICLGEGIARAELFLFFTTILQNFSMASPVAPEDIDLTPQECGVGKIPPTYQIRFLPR
Procedure: as §12

[3] = system: human primary hepatocytes; assay: In vitro intracellular half-life of 2′-C-methyl guanosine-5′-triphosphate (Compound 7) in human primary hepatocytes; format: in vitro ADME; settings: for Decay of Compound 7: level in cellular extracts: human hepatocytes Hu775; for Compound 7 levels after 24 hours without drug / reduction of Compound 7 levels after 24 hours without drug / Compound 7 levels at time zero: human hepatocytes
Procedure: (§13) Primary hepatocytes were incubated with 10 μM [^14C]-Compound 1 ([…]) or [^14C]-2′-C-methyl guanosine (127 DPM/μmol) for 24 hours at which time the incubation medium was removed and the cell monolayer carefully washed two times with warm (37° C.) PBS and placed back in culture with drug-free medium. At selected times up to 24 hours, the medium was removed and the cell monolayers carefully washed two times with ice-cold PBS. Following the last wash, all PBS was carefully removed and the cell monolayers processed and extracted as previously described. […]

[4] = as above; format: in vitro ADME; settings: human, primary hepatocytes (cellular extracts)
Procedure: as §13

[5] = [^14C]-2′-C-methyl guanosine removed

SMILES: CC(C)(CO)C(=O)SCCOP(=O)(NCc1ccccc1)OC[C@H]1O[C@@H](n2cnc3c(=O)[nH]c(N)nc32)[C@](C)(O)[C@@H]1O (mixture of isomers) [Compound 1, 3-hydroxy-2,2-dimethyl-thiopropionic acid S-(2-{[(2R,3R,4R,5R)-5-(2-amino-6-oxo-1,6-dihydro-purin-9-yl)-3,4-dihydroxy-4-methyl-tetrahydro-furan-2-ylmethoxy]-benzylamino-phosphoryloxy}-ethyl) ester]
- Fold shift from wild-type ([1]; 184R-D2 (S282T), EC50 in resistant line divided by EC50 in wild-type cells): 130 fold
- EC50 ([1]; Hepatitis C virus): 39 ± 10 µM
- Fold shift from wild-type ([2]; GS4.1 (wild-type), EC50 reference): 1 fold
- EC50 ([2]; Hepatitis C virus): 0.3 µM
- % Residual Compound 1 (CYP1A2): 104%
- % Residual Compound 1 (CYP3A4; Ketoconazole 0.1 μM): 103%
- % Residual Compound 1 (CYP3A4; Ketoconazole 1 μM): 117%
- % Residual Compound 1 (CYP3A4; Ritonavir 0.1 μM): 92%
- % Residual Compound 1 (CYP3A4; Ritonavir 1 μM): 117%
- % Residual Compound 1 (CYP3A4; inhibitor 0 μM): 65%
- % Residual Compound 1 (CYP2C19): 111%
- % Residual Compound 1 (CYP2B6): 108%

SMILES: C[C@@]1(O)[C@H](O)[C@@H](COP(=O)(O)OP(=O)(O)OP(=O)(O)O)O[C@H]1n1cnc2c(=O)[nH]c(N)nc21 [Compound 7, [(2R)-2-methyl-β-D-ribofuranosyl]guanine 5′-triphosphate]
- Decay of Compound 7: level in cellular extracts ([3]; after 24 h incubation with 10 μM [^14C]-2′-C-methyl guanosine, decay time 0 h): 266 pmol/million cells
- Decay of Compound 7: level in cellular extracts ([3]; after 24 h incubation with 10 μM [^14C]-2′-C-methyl guanosine, decay time 1 h): 259 pmol/million cells
- Decay of Compound 7: level in cellular extracts ([3]; after 24 h incubation with 10 μM [^14C]-2′-C-methyl guanosine, decay time 4 h): 217 pmol/million cells
- Decay of Compound 7: level in cellular extracts ([3]; after 24 h incubation with 10 μM [^14C]-2′-C-methyl guanosine, decay time 8 h): 190 pmol/million cells
- Decay of Compound 7: level in cellular extracts ([3]; after 24 h incubation with 10 μM [^14C]-2′-C-methyl guanosine, decay time 24 h): 58.0 pmol/million cells
- Decay of Compound 7: level in cellular extracts ([3]; after 24 h incubation with 10 μM [^14C]-Compound 1, decay time 0 h): 692 pmol/million cells
- Decay of Compound 7: level in cellular extracts ([3]; after 24 h incubation with 10 μM [^14C]-Compound 1, decay time 1 h): 702 pmol/million cells
- Decay of Compound 7: level in cellular extracts ([3]; after 24 h incubation with 10 μM [^14C]-Compound 1, decay time 4 h): 597 pmol/million cells
- Decay of Compound 7: level in cellular extracts ([3]; after 24 h incubation with 10 μM [^14C]-Compound 1, decay time 8 h): 497 pmol/million cells
- Decay of Compound 7: level in cellular extracts ([3]; after 24 h incubation with 10 μM [^14C]-Compound 1, decay time 24 h): 273 pmol/million cells
- Compound 7 levels after 24 hours without drug [3, 5]: 58 pmol/million cells
- reduction of Compound 7 levels after 24 hours without drug [3, 5]: 78%
- Compound 7 levels after 24 hours without drug ([3]; [^14C]-Compound 1 removed): 273 pmol/million cells
- reduction of Compound 7 levels after 24 hours without drug ([3]; [^14C]-Compound 1 removed): 61%
- Compound 7 levels at time zero ([3]; after 24 h with 10 μM [^14C]-Compound 1): 692 pmol/million cells
- Compound 7 levels at time zero ([3]; after 24 h with [^14C]-2′-C-methyl guanosine): 266 pmol/million cells
- half-life at 10 μM ([4]; in vitro half-life for Compound 7, human hepatocytes, after 2′-C-methyl guanosine): 10.8 h
- half-life at 10 μM ([4]; in vitro half-life for Compound 7, human hepatocytes, following [^14C]-Compound 1): 17.4 h
- half-life at 10 μM ([4]; in vitro intracellular t1/2 of Compound 7, human hepatocytes Hu775, after 24 h incubation with 10 μM [^14C]-2′-C-methyl guanosine, linear regression): 10.8 h
- half-life at 10 μM ([4]; in vitro intracellular t1/2 of Compound 7, human hepatocytes Hu775, after 24 h incubation with 10 μM [^14C]-Compound 1, linear regression): 17.4 h
